The text below walks through data of ChEMBL document CHEMBL1147234, “Bioassay-guided isolation of epiquinamide, a novel quinolizidine alkaloid and nicotinic agonist from an Ecuadoran poison frog, Epipedobates tricolor” (J Nat Prod, 2003).

What all share (assay type): functional
Assay [1] deals with Acetylcholine receptor; alpha1/beta1/delta/gamma (Homo sapiens) (UniProt P02708+P07510+P11230+Q07001). Put plainly: Agonist activity at human nicotinic alpha-1-beta-1-gamma-delta receptor expressed in human TE-671 cells at 50 uM by cell based membrane potential assay relative to (+/-)-epibatidine.
Assay [2] addresses Neuronal acetylcholine receptor; alpha4/beta2 (Homo sapiens) (UniProt P17787+P43681). Put plainly: Agonist activity at human nicotinic alpha4beta2 receptor expressed in human K177 cells at 50 uM by cell based membrane potential assay relative to (+/-)-epibatidine.
Assay [3] deals with Neuronal acetylcholine receptor; alpha3/beta4 (Homo sapiens) (UniProt P30926+P32297). Put plainly: Agonist activity at human nicotinic alpha3beta4 receptor expressed in human IMR32 cells at 50 uM by cell based membrane potential assay relative to (+/-)-epibatidine. The conditions noted are these: IMR-32.
Assay [4] has as its target Neuronal acetylcholine receptor; alpha3/beta4 (Rattus norvegicus) (UniProt P04757+P12392). Put plainly: Agonist activity at rat nicotinic alpha3beta4 receptor expressed in human KXalpha-3-beta-4R2 cells at 50 uM by cell based membrane potential assay relative to (+/-)-epibatidine.
In assay [5] the target is Neuronal acetylcholine receptor; alpha3/beta2 (Homo sapiens) (UniProt P17787+P32297). Put plainly: Agonist activity at human nicotinic alpha3beta2 receptor expressed in human SH-SY5Y cells at 50 uM by cell based membrane potential assay relative to (+/-)-epibatidine.

The structures appear in SMILES notation.

For `CC(=O)N[C@@H]1CCCN2CCCC[C@H]12` (relative stereo), the Activity was 8% in assay [1]; 58% in assay [2]; 15% in assay [3]; 23% in assay [4]; 51% in assay [5].
